The results in this text go back to patent publication US6875578B2, “System for cell-based screening” (priority 1997, dated 2005).

Assay [1] deals with L929 cells. The assay is described as follows: Apoptosis nuclear morphology, L929 cells. The format is cell-based, mouse. The settings on record: 30 hours. The procedure:
Cells were plated into 96-well plates at densities of 3×10^3 to 1×10^4 cells/well. The following day apoptotic inducers were added at indicated concentrations and cells were incubated for indicated time periods (usually 16-30 hours). The next day medium was removed and cells were stained with 5 μg/ml Hoechst (Molecular Probes, Inc.) in fresh medium and incubated for 30 minutes at 37° C. Cells were washed in Hank's Balanced Salt Solution (HBSS) and fixed with 3.7% formaldehyde in HBSS at room temperature. Cells were washed 2×with HBSS at room temperature and the plate was sealed.
Quantitation of changes in nuclear morphology upon induction of apoptosis was accomplished by (1) measuring the effective size of the nuclear region; and (2) measuring the degree of convolution of the perimeter.

For assay [2], the system named is L929 cells. The assay can be described thus: Apoptosis actin reorganization (f-actin content), L929 cells. The format is cell-based, mouse. The settings on record: 30 hours. On the procedure:
(§1) Cells were plated in 96-well plates at densities of 3×10^3 to 1×10^4 cells/well. The following day apoptotic inducers were added at indicated concentrations. Cells were incubated for the indicated time periods (usually 16-30 hours). The next day the medium was removed and cells were stained with 5 μg/ml Hoechst (Molecular Probes, Inc.) in fresh medium and incubated for 30 minutes at […]. Cells were washed in HBSS and fixed with 3.7% formaldehyde in HBSS at room temperature. Plates were washed with HBSS and permeabilized with 0.5% v/v Triton X-100 in HBSS at room temperature. Plates were washed in HBSS and stained with 100 μl of 1 U/ml of Alexa 488 Phalloidin stock (100 μl/well, Molecular Probes, Inc.). Cells were washed 2×with HBSS at RT and the plate was sealed.
(§2) Quantitation of f-actin content was accomplished by measuring the intensity of phalloidin staining around the nucleus. This was determined to be a reasonable approximation of a full cytoplasmic average of the intensity. The mask used to approximate this cytoplasmic measure was derived from the nuclear mask defined by the Hoechst stain. Derivation was accomplished by combinations of erosions and dilations.

The subject of assay [3] is MCF-7 cells. The assay can be described thus: Apoptosis actin reorganization (f-actin content), MCF-7 cells. The format is cell-based. The settings on record: 30 hours. On the procedure:
as §1, §2

The subject of assay [4] is MCF-7 cells. The assay is described as follows: Apoptosis mitochondrial mass/potential, MCF-7 cells. The format is cell-based. The settings on record: 30 hours. On the procedure: Cells were plated into 96-well plates at densities of 3×10^3 to 1×10^4 cells/well. The following day apoptotic inducers were added at the indicated concentrations and cells were incubated for the indicated time periods (usually 16-30 hours). Cells were stained with 5 μg/ml Hoechst (Molecular Probes, Inc.) and 750 nM MITOTRACKER™ Red (CMXRos, Molecular Probes, Inc.) in fresh medium and incubated for 30 minutes at 37° C. Cells were washed in HBSS and fixed with 3.7% formaldehyde in HBSS at room temperature. Plates were washed with HBSS and permeabilized with 0.5% v/v TRITON™ X-100 in HBSS at room temperature. Cells were washed 2× with HBSS at room temperature and the plate was sealed. For dual labeling of mitochondria, cells were treated with 200 nM MITOTRACKER™ Green and 200 nM MITOTRACKER™ Red for 0.5 hours before fixation.
The mitochondrial membrane potential is measured by labeling mitochondria with both MITOTRACKER™ Green FM and MITOTRACKER™ Red (Molecular Probes, mc). MITOTRACKER™ Red labeling is proportional to both mass and membrane potential. MITOTRACKER™ Green FM labeling is proportional to mass. The ratio of MITOTRACKER™ Red signal to the MITOTRACKER™ Green FM signal provides a measure of mitochondrial membrane potential (Poot and Pierce, 1999). This ratio normalizes the […]. […]

Assay [5] has as its system caspase-3. The assay is described as follows: Caspase-3 biosensor apoptosis assay, BHK cells. The assay is classed as cell-based. The settings on record: BHK cells transfected with the caspase 3 biosensor. The procedure:
(§3) For DNA transfection, BHK cells and MCF-7 cells were cultured to 50-70% confluence in 6 well plates containing 3 ml of minimal Eagle's medium (MEM) with 10% fetal calf serum, 1 mM L-glutamine, 50 μg/ml streptomycin, 50 μg/ml penicillin, 0.1 mM non-essential amino acids, 1 mM sodium pyruvate and 10 μg/ml of bovine insulin (for MCF-7 cell only) at 37° C. in a 5% CO2 incubator for about 36 hours. The cells were washed with serum free MEM media and incubated for 5 hours with 1 ml of transfection mixture containing 1 μg of the appropriate plasmid and 4 μg of lipofectimine (BRL) in the serum free MEM media. Subsequently, the transfection medium was removed and replaced with 3 ml of normal culture media. The transfected cells were maintained in growth medium for at least 16 hours before performing selection of the stable cells based on standard molecular biology methods (Ausubel. et al 1995).
For apoptosis assays, the cells (BHK, MCF-7) stably transfected with the appropriate protease biosensor expression vector were plated on tissue culture treated 96-well plates at 50-60% confluence and cultured overnight at 37° C., 5% CO2. […]
(§4) The biosensor response is measured by quantitating the effective cytoplasm-to-nuclear translocation of the signal (see above). […]

The test system of assay [6] is caspase-3. The assay is described as follows: Caspase-3 biosensor apoptosis assay, MCF-7 cells. The assay is classed as cell-based. The settings on record: MCF-7 cells transfected with the caspase 3 biosensor. On the procedure:
as §3
For apoptosis assays, the cells (BHK, MCF-7) stably transfected with the appropriate protease biosensor expression vector were plated on tissue culture treated 96-well plates at 50-60% confluence and cultured overnight at 37° C., 5% CO2. Varying concentrations of cis-platin, staurosporine, or paclitaxel in normal culture media were freshly prepared from stock and added to cell culture dishes to replace the old culture media. The cells were then observed with the cell screening system of the present invention at the indicated time points either as live cell experiments or as fixed end-point experiments.
This biosensor is restricted to the cytoplasm by the reactant target sequence. The reactant target sequence is the annexin II cytoskeletal binding domain ([…]) (SEQ ID NO:124) (FIG. 29C) (Eberhard et al. 1997. Mol. Biol. Cell 8:293a). The enzyme recognition site corresponds to two copies of the amino acid sequence DEVD (SEQ ID NO:60) (FIG. 29B), which serves as the recognition site of caspase-3. […]
as §4

Entries after “also recorded” stand apart in the source; their conditions may differ.

As for `CC(=O)O[C@H]1C(=O)[C@@]2(C)[C@H]([C@H](OC(=O)c3ccccc3)[C@]3(O)C[C@H](OC(=O)[C@H](O)[C@@H](NC(=O)c4ccccc4)c4ccccc4)C(C)=C1C3(C)C)[C@]1(OC(C)=O)CO[C@@H]1C[C@@H]2O` [paclitaxel], in the assay on L929 cells [1], the “change in nuclear morphology” value is given as “dose-dependent change in nuclear morphology; also recorded: classic nuclear fragmentation”. In addition, the “change in peri-nuclear f-actin content” value is “dose-dependent increases in f-actin content” with L929 cells [2]; “graded increases in f-actin” in the assay with L929 cells [2] (listed as Paclitaxel); “highly variable; also recorded: highly variable and not significant” in the assay on MCF-7 cells [3]. In the assay with MCF-7 cells [4], the “mitochondrial changes (mass / membrane potential)” value is on record as “consistent increases in mitochondrial mass; also recorded: an increase in mitochondrial mass”. The “caspase activation reported by the biosensor” value in the assay with caspase-3 [5] and in the assay with caspase-3 [6] was “stimulated” each time.
